Laboratory results: US9969687B2, “Compounds useful as CCR9 modulators” (Norgine B.V., priority 2013, dated 2018)

These compounds were tested against CCR9 (Homo sapiens (Human), UniProt P51686) (assay: FLIPR calcium flux assay using MOLT4 cells, TECK stimulation). Details: MOLT4 cells (human T-cell line).
Format: cell-based
Protocol: Biological Activity: FLIPR Assay Using MOLT4 Cells
A calcium flux assay was used to determine the ability of the compounds to interfere with the binding between CCR9 and its chemokine ligand (TECK) in MOLT4 cells (a human T-cell line). MOLT4 cells were seeded (100,000 cells/well) in corning cell culture plates (Cat #3603) in assay buffer (1×HBSS, 20 mM HEPES) containing 2.5 mM Probenecid. The plate was centrifuged at 1200 rpm for 3 minutes and incubated at 37° C./5% CO2 for 2 hours. A 0.3× Fluo-4 NW calcium dye was prepared in assay buffer containing 5 mM Probenecid and stored in the dark. Each well was loaded with 25 μl of 0.3× Fluo-4 NW calcium dye and incubated at 37° C./5% CO2 for 60 minutes and then at room temperature for 30 minutes. A half-log serially diluted concentration response curve was prepared at a 4× concentration for each (10 μM-0.1 nM final assay concentration) and 25 μL of the compound then transferred to the cells (100 μL final volume) for 60 minutes prior to stimulation (30 minutes at 37° C./5% CO2 and 30 minutes at room temperature). […] The increased in intracellular calcium levels was measured with the FLIPR instrument. The potency of the compound as CCR9 antagonist was calculated as an IC50 using GraphPad Prism software (variable slope four parameter). The Ki of the compound was determined from the IC50 values using the following equation. IC50/1+(Agonist (TECK) conc. used in assay/EC50 of agonist (TECK) generated on day of experiment) Ki calculation: […]

Sequence of CCR9 (P51686 whole entry): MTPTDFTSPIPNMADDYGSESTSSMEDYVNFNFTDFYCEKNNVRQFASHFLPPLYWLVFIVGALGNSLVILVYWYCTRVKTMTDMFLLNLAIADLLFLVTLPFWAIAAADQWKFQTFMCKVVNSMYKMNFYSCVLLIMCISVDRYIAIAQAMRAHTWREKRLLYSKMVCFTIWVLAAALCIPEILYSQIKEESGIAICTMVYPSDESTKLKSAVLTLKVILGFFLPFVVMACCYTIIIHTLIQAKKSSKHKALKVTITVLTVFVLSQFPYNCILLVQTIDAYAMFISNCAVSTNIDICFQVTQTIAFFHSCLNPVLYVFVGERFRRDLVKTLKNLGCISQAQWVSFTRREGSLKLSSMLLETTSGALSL

Ki	Structure (SMILES)
2710 nM	O=C1c2cccc(NS(=O)(=O)c3cccc(C(F)(F)F)c3)c2C(=O)N1c1cccnc1 [Compound 4]
123 nM	O=C1c2cccc(NS(=O)(=O)c3ccc(OC(F)(F)F)cc3)c2C(=O)N1c1cccnc1 [Compound 5]
206 nM	O=C1c2cccc(NS(=O)(=O)c3ccc(Cl)c(C(F)(F)F)c3)c2C(=O)N1c1cccnc1 [Compound 7]
1320 nM	O=C1c2cccc(NS(=O)(=O)c3ccc(F)c(C(F)(F)F)c3)c2C(=O)N1c1cccnc1 [Compound 8]
1550 nM	CC(C)(C)c1cccc(S(=O)(=O)Nc2cccc3c2C(=O)N(Cc2cccnc2)C3=O)c1 [Compound 14]
758 nM	O=C1c2cccc(NS(=O)(=O)c3ccc(C(F)(F)F)cc3)c2C(=O)N1Cc1cccnc1 [Compound 19]
1210 nM	CC(C)(C)c1ccc(S(=O)(=O)Nc2cccc3c2C(=O)N(c2ccc(C#N)cc2)C3=O)cc1 [Compound 36]
611 nM	N#Cc1cccc(N2C(=O)c3cccc(NS(=O)(=O)c4ccc(C(F)(F)F)cc4)c3C2=O)c1 [Compound 39]
1360 nM	N#Cc1cccc(N2C(=O)c3cccc(NS(=O)(=O)c4ccc(OC(F)(F)F)cc4)c3C2=O)c1 [Compound 40]
167 nM	N#Cc1cccc(N2C(=O)c3cccc(NS(=O)(=O)c4ccc(Cl)c(C(F)(F)F)c4)c3C2=O)c1 [Compound 41]
171 nM	O=C1c2c(Cl)ccc(NS(=O)(=O)c3ccc(Cl)c(C(F)(F)F)c3)c2C(=O)N1c1cccnc1 [Compound 48]
187 nM	O=C1c2c(Cl)ccc(NS(=O)(=O)c3ccc(OC(F)F)cc3)c2C(=O)N1c1cccnc1 [Compound 52]
38 nM	CC(C)c1ccc(S(=O)(=O)Nc2ccc(Cl)c3c2C(=O)N(c2cccnc2)C3=O)cc1 [Compound 57]
33 nM	CC(C)(C#N)c1ccc(S(=O)(=O)Nc2ccc(Cl)c3c2C(=O)N(Cc2cccnc2)C3=O)cc1 [Compound 79]
173 nM	CC(C)c1ccc(S(=O)(=O)Nc2ccc(Cl)c3c2C(=O)N(Cc2cccnc2)C3=O)cc1 [Compound 80]
148 nM	CC(C)(C#N)c1ccc(S(=O)(=O)Nc2ccc(Cl)c3c2C(=O)N(Cc2ccc[n+]([O-])c2)C3=O)cc1 [Compound 81]
50 nM	COc1cc(N2C(=O)c3c(Cl)ccc(NS(=O)(=O)c4ccc(C(C)(C)C)cc4)c3C2=O)c[n+]([O-])c1 [Compound 91, 3-(4-(4-(tert-butyl)phenylsulfonamido)-7-chloro-1,3-dioxoisoindolin-2-yl)-5-methoxypyridine 1-oxide]
255 nM	COc1cncc(N2C(=O)c3c(Cl)ccc(NS(=O)(=O)c4ccc(C(F)(F)F)cc4)c3C2=O)c1 [Compound 92]
217 nM	COc1cncc(N2C(=O)c3c(Cl)ccc(NS(=O)(=O)c4ccc(Cl)c(C(F)(F)F)c4)c3C2=O)c1 [Compound 93]

Ki	Structure (SMILES)
244 nM	COc1cncc(N2C(=O)c3c(Cl)ccc(NS(=O)(=O)c4ccc(OC(F)(F)F)cc4)c3C2=O)c1 [Compound 94]
311 nM	Cc1cncc(N2C(=O)c3c(Cl)ccc(NS(=O)(=O)c4ccc(C(C)C)cc4)c3C2=O)c1 [Compound 105]
318 nM	CC(C)(C)c1ccc(S(=O)(=O)Nc2ccc(Cl)c3c2C(=O)N(C(C)(C)c2cccnc2)C3=O)cc1 [Compound 107, 4-(tert-butyl)-N-(7-chloro-1,3-dioxo-2-(2-(pyridin-3-yl)propan-2-yl)isoindolin-4-yl)benzenesulfonamide]
100 nM	CC(C)(C)c1ccc(S(=O)(=O)Nc2ccc(Cl)c3c2C(=O)N(CCc2cccnc2)C3=O)cc1 [Compound 116, 4-(tert-butyl)-N-(7-chloro-1,3-dioxo-2-(2-(pyridin-3-yl)ethyl)isoindolin-4-yl)benzenesulfonamide]
184 nM	CC(C)(C)c1ccc(S(=O)(=O)Nc2ccc(Cl)c3c2C(=O)N(CCc2ccc[n+]([O-])c2)C3=O)cc1 [Compound 117, 3-(2-(4-(4-(tert-butyl)phenylsulfonamido)-7-chloro-1,3-dioxoisoindolin-2-yl)ethyl)pyridine 1-oxide]
78 nM	COc1ccc(N2C(=O)c3c(Cl)ccc(NS(=O)(=O)c4ccc(C(C)(C)C)cc4)c3C2=O)cn1 [Compound 118, 4-(tert-butyl)-N-(7-chloro-2-(6-methoxypyridin-3-yl)-1,3-dioxoisoindolin-4-yl)benzenesulfonamide]
175 nM	N#Cc1cccc(N2C(=O)c3c(Cl)ccc(NS(=O)(=O)c4ccc(OC(F)(F)F)cc4)c3C2=O)c1 [Compound 122]
224 nM	N#Cc1cccc(N2C(=O)c3c(Cl)ccc(NS(=O)(=O)c4ccc(OC(F)F)cc4)c3C2=O)c1 [Compound 124]
243 nM	CC(C)c1ccc(S(=O)(=O)Nc2ccc(Cl)c3c2C(=O)N(c2cccc(C#N)c2)C3=O)cc1 [Compound 125]
153 nM	CC(C)(C)c1ccc(S(=O)(=O)Nc2ccc(C#N)c3c2C(=O)N(Cc2cccc(C#N)c2)C3=O)cc1 [Compound 127, 4-(tert-butyl)-N-(7-cyano-2-(3-cyanobenzyl)-1,3-dioxoisoindolin-4-yl)benzenesulfonamide]
252 nM	N#Cc1cccc(CN2C(=O)c3c(Cl)ccc(NS(=O)(=O)c4ccc(Cl)c(C(F)(F)F)c4)c3C2=O)c1 [Compound 132]
216 nM	O=C1c2c(Cl)ccc(NS(=O)(=O)c3ccc(C(F)(F)F)cc3)c2C(=O)N1c1cncnc1 [Compound 140]
41 nM	Cn1cc(N2C(=O)c3c(Cl)ccc(NS(=O)(=O)c4ccc(C(C)(C)C)cc4)c3C2=O)cn1 [Compound 142]
64 nM	Cn1cc(N2C(=O)c3c(Cl)ccc(NS(=O)(=O)c4ccc(C(F)(F)F)cc4)c3C2=O)cn1 [Compound 143]
154 nM	CC(C)(C)c1ccc(S(=O)(=O)Nc2ccc(Cl)c3c2C(=O)N(c2nccs2)C3=O)cc1 [Compound 146]
42 nM	CC(C)c1ccc(S(=O)(=O)Nc2ccc(Cl)c3c2C(=O)N(c2cn[nH]c2)C3=O)cc1 [Compound 151]
245 nM	O=C1c2c(Cl)ccc(NS(=O)(=O)c3ccc(OC(F)F)cc3)c2C(=O)N1c1cn[nH]c1 [Compound 152]
32 nM	Cn1cnc(N2C(=O)c3c(Cl)ccc(NS(=O)(=O)c4ccc(C(F)(F)F)cc4)c3C2=O)c1 [Compound 154]
189 nM	Cc1ccc(NS(=O)(=O)c2ccc(C(C)(C)C)cc2)c2c1C(=O)N(c1cccnc1)C2=O [Compound 157, 4-(tert-butyl)-N-(7-methyl-1,3-dioxo-2-(pyridin-3-yl)isoindolin-4-yl)benzenesulfonamide]

Ki	Structure (SMILES)
568 nM	Cc1ccc(NS(=O)(=O)c2ccc(C(F)(F)F)cc2)c2c1C(=O)N(Cc1cccnc1)C2=O [Compound 161]
1000 nM	Cc1ccc(NS(=O)(=O)c2ccc(OC(F)(F)F)cc2)c2c1C(=O)N(Cc1cccnc1)C2=O [Compound 162]
73 nM	CC(C)(C)c1ccc(S(=O)(=O)Nc2ccc(Cl)c3c2C(=O)N(c2cncc(C#N)c2)C3=O)cc1 [Compound 177]
164 nM	CC(C)(C)c1ccc(S(=O)(=O)Nc2ccc(Cl)c3c2C(=O)N(c2cncs2)C3=O)cc1 [Compound 178]
78 nM	COc1ccc(N2C(=O)c3c(Cl)ccc(NS(=O)(=O)c4ccc(C(C)(C)C)cc4)c3C2=O)c[n+]1[O-] [Compound 180]
33 nM	CC(C)(C)c1ccc(S(=O)(=O)Nc2ccc(Cl)c3c2C(=O)N(c2ccc(F)nc2)C3=O)cc1 [Compound 187]
46 nM	Cc1ccc(N2C(=O)c3c(Cl)ccc(NS(=O)(=O)c4ccc(C(C)(C)C)cc4)c3C2=O)c[n+]1[O-] [Compound 205]
44 nM	CCOc1cccc(N2C(=O)c3c(Cl)ccc(NS(=O)(=O)c4ccc(C(C)(C)C)cc4)c3C2=O)[n+]1[O-] [Compound 210]
85 nM	Cc1ccc(CN2C(=O)c3c(Cl)ccc(NS(=O)(=O)c4ccc(C(C)(C)C)cc4)c3C2=O)cn1 [Compound 215]
84 nM	Cc1cc(C)nc(N2C(=O)c3c(Cl)ccc(NS(=O)(=O)c4ccc(C(C)(C)C)cc4)c3C2=O)n1 [Compound 240]
125 nM	CCOc1nc(C)ccc1CN1C(=O)c2c(Cl)ccc(NS(=O)(=O)c3ccc(C(C)(C)C)cc3)c2C1=O [Compound 246]
70 nM	Cc1ccc(CN2C(=O)c3c(Cl)ccc(NS(=O)(=O)c4ccc(C(C)(C)C)cc4)c3C2=O)c(C)n1 [Compound 248]
33 nM	Cc1ccc(CN2C(=O)c3c(Cl)ccc(NS(=O)(=O)c4ccc(C(C)(C)C)cc4)c3C2=O)c(C)[n+]1[O-] [Compound 252]
41 nM	COc1nc(C)ccc1CN1C(=O)c2c(Cl)ccc(NS(=O)(=O)c3ccc(C(C)(C)C)cc3)c2C1=O [Compound 253]
41 nM	COc1ccc(N2C(=O)c3c(Cl)ccc(NS(=O)(=O)c4ccc(C(C)(C)C)cc4)c3C2=O)[n+]([O-])c1C [Compound 265]
54 nM	COc1cnc(N2C(=O)c3c(Cl)ccc(NS(=O)(=O)c4ccc(C(C)(C)C)cc4)c3C2=O)cc1C [Compound 268]
108 nM	COc1cc(CN2C(=O)c3c(Cl)ccc(NS(=O)(=O)c4ccc(C(C)(C)C)cc4)c3C2=O)ccn1 [Compound 273]
28 nM	CC(C)(C)c1ccc(S(=O)(=O)Nc2ccc(C#N)c3c2C(=O)N(C2CCOCC2)C3=O)cc1 [Compound 277]
37 nM	CC(C)(C)c1ccc(S(=O)(=O)Nc2ccc(C#N)c3c2C(=O)N(Cc2ccc[n+]([O-])c2)C3=O)cc1 [Compound 280]
